Test results taken from PMC5038265 (Antimicrobial Agents and Chemotherapy, 2016).
Converted amounts (≈) assume the structure as drawn. Like-named read-outs stand apart in the source and are kept apart here.

How the values were obtained:
[1] = tested on: multidrug-resistant M. tuberculosis isolates; assay: microbe, parasite or virus in culture; assay type: cell-based; details: for MIC: Mycobacterium tuberculosis, read-out: In vitro activity (MIC)
M. tuberculosis H37Rv = assay type: cell-based

Row | Structure (SMILES) | cross-resistance against multidrug-resistant isolates [1] | MIC ([1]; H37RV, M. tuberculosis H37Rv) [µg/mL] | MIC [1] [µg/mL] | In vitro activity (MIC) ([1]; listed as Cmp13) [µg/mL] | Resistance frequency at 4× MIC (M. tuberculosis H37Rv) | Resistance frequency at 10× MIC (M. tuberculosis H37Rv)
1 | CCOc1ccc(Cl)c2c1B(O)O[C@@H]2CN [Compound 13] | did not show any cross-resistance | 0.015 (≈ 0.0621 µM) | 0.015 (≈ 0.0621 µM) | 0.030 | – | –
2 | COc1c(N2C[C@@H]3CCCN[C@@H]3C2)c(F)cc2c(=O)c(C(=O)O)cn(C3CC3)c12 [Moxifloxacin, moxifloxacin, reference compound] | – | – | – | – | 1.7 × 10^−7 | 1.1 × 10^−8
3 | NNC(=O)c1ccncc1 [Isoniazid, isoniazid, reference compound] | – | 0.06 (≈ 0.438 µM) | > 0.12 | – | – | 1.8 × 10^−5
4 | CCOc1ccc(Br)c2c1B(O)O[C@@H]2CN [Compound 14] | did not show any cross-resistance | 0.03 (≈ 0.105 µM) | 0.03 (≈ 0.105 µM) | – | 4.6 × 10^−6 | 3.9 × 10^−6
